# Laboratory results taken from ChEMBL document CHEMBL5055633, “Amphipathic Barbiturates as Mimics of Antimicrobial Peptides and the Marine Natural Products Eusynstyelamides with Activity against Multi-resistant Clinical Isolates” (J Med Chem, 2021).
# Tests used:
# [1] = tested on: HepG2; experiment: Cytotoxicity against human HepG2 cells assessed as reduction in cell viability incubated for 24 hrs by colorimetric tetrazolium assay; type: functional, cell-based; conditions: HepG2, 24 h
# [2] = Hemolytic activity in human erythrocytes incubated for 1 hr by microplate reader; type: functional, cell-based; conditions: erythrocyte
# [3] = tested on: Pseudomonas aeruginosa; experiment: Antimicrobial activity against Pseudomonas aeruginosa PAO1 assessed as reduction in bacterial growth incubated for 48 hrs by microdilution susceptibility test; type: functional
# [4] = tested on: Escherichia coli; experiment: Antimicrobial activity against Escherichia coli ATCC 25922 assessed as reduction in bacterial growth incubated for 48 hrs by microdilution susceptibility test; type: functional
# [5] = tested on: Corynebacterium glutamicum; experiment: Antimicrobial activity against Corynebacterium glutamicum ATCC 13032 assessed as reduction in bacterial growth incubated for 48 hrs by microdilution susceptibility test; type: functional
# [6] = tested on: Staphylococcus aureus; experiment: Antimicrobial activity against Staphylococcus aureus ATCC 9144 assessed as reduction in bacterial growth incubated for 48 hrs by microdilution susceptibility test; type: functional
# [7] = tested on: MRC5; experiment: Cytotoxicity against human MRC5 cells assessed as reduction in cell viability incubated for 24 hrs by colorimetric tetrazolium assay; type: functional, cell-based; conditions: MRC5, 24 h
# [8] = tested on: Staphylococcus aureus; experiment: Antimicrobial activity against extended spectrum-lactamase-carbapenemas producing Staphylococcus aureus N315 assessed as reduction in bacterial growth incubated for 48 hrs by microdilution method; type: functional
# [9] = tested on: Staphylococcus aureus; experiment: Antimicrobial activity against extended spectrum-lactamase-carbapenemas producing Staphylococcus aureus NCTC 10442 assessed as reduction in bacterial growth incubated for 48 hrs by microdilution method; type: functional
# [10] = tested on: Staphylococcus aureus; experiment: Antimicrobial activity against extended spectrum-lactamase-carbapenemas producing Staphylococcus aureus strain 85/2082 assessed as reduction in bacterial growth incubated for 48 hrs by microdilution method; type: functional
# [11] = tested on: Staphylococcus aureus; experiment: Antimicrobial activity against extended spectrum-lactamase-carbapenemas producing Staphylococcus aureus strain WIS assessed as reduction in bacterial growth incubated for 48 hrs by microdilution method; type: functional
# [12] = tested on: Staphylococcus aureus; experiment: Antimicrobial activity against extended spectrum-lactamase-carbapenemas producing Staphylococcus aureus strain IHT 99040 assessed as reduction in bacterial growth incubated for 48 hrs by microdilution method; type: functional
# [13] = tested on: Enterococcus faecium; experiment: Antimicrobial activity against extended spectrum-lactamase-carbapenemas producing Enterococcus faecium strain 50673722 assessed as reduction in bacterial growth incubated for 48 hrs by microdilution method; type: functional
# [14] = tested on: Enterococcus faecium; experiment: Antimicrobial activity against extended spectrum-lactamase-carbapenemas producing Enterococcus faecium strain 50901530 assessed as reduction in bacterial growth incubated for 48 hrs by microdilution method; type: functional
# [15] = tested on: Enterococcus faecium; experiment: Antimicrobial activity against extended spectrum-lactamase-carbapenemas producing Enterococcus faecium strain K36-18 assessed as reduction in bacterial growth incubated for 48 hrs by microdilution method; type: functional
# [16] = tested on: Enterococcus faecium; experiment: Antimicrobial activity against extended spectrum-lactamase-carbapenemas producing Enterococcus faecium strain 50758899 assessed as reduction in bacterial growth incubated for 48 hrs by microdilution method; type: functional
# [17] = tested on: Enterococcus faecium; experiment: Antimicrobial activity against extended spectrum-lactamase-carbapenemas producing Enterococcus faecium strain TUH.50-22 assessed as reduction in bacterial growth incubated for 48 hrs by microdilution method; type: functional
# [18] = tested on: Escherichia coli; experiment: Antimicrobial activity against oxacillinase-producing Escherichia coli 50579417 assessed as reduction in bacterial growth incubated for 48 hrs by microdilution method; type: functional
# [19] = tested on: Escherichia coli; experiment: Antimicrobial activity against verona integron-encoded metallo-beta-lactamase-29-producing Escherichia coli 50639799 assessed as reduction in bacterial growth incubated for 48 hrs by microdilution method; type: functional
# [20] = tested on: Escherichia coli; experiment: Antimicrobial activity against New Delhi metallo-beta lactamase-1 producing Escherichia coli 50676002 assessed as reduction in bacterial growth incubated for 48 hrs by microdilution method; type: functional
# [21] = tested on: Escherichia coli; experiment: Antimicrobial activity against New Delhi metallo-beta lactamase-1 producing Escherichia coli 50739822 assessed as reduction in bacterial growth incubated for 48 hrs by microdilution method; type: functional
# [22] = tested on: Escherichia coli; experiment: Antimicrobial activity against imipenem-type carbapenemase-26 producing Escherichia coli 50857972 assessed as reduction in bacterial growth incubated for 48 hrs by microdilution method; type: functional
# [23] = tested on: Pseudomonas aeruginosa; experiment: Antimicrobial activity against verona integron-encoded metallo-beta-lactamase-2 producing Pseudomonas aeruginosa K34-7 assessed as reduction in bacterial growth incubated for 48 hrs by microdilution method; type: functional
# [24] = tested on: Pseudomonas aeruginosa; experiment: Antimicrobial activity against verona integron-encoded metallo-beta-lactamase-4 producing Pseudomonas aeruginosa K34-73 assessed as reduction in bacterial growth incubated for 48 hrs by microdilution method; type: functional
# [25] = tested on: Pseudomonas aeruginosa; experiment: Antimicrobial activity against imipenem-type carbapenemase-14 producing Pseudomonas aeruginosa K44-24 assessed as reduction in bacterial growth incubated for 48 hrs by microdilution method; type: functional
# [26] = tested on: Pseudomonas aeruginosa; experiment: Antimicrobial activity against New Delhi metallo-beta lactamase-1 producing Pseudomonas aeruginosa 50692172 assessed as reduction in bacterial growth incubated for 48 hrs by microdilution method; type: functional
# [27] = tested on: Pseudomonas aeruginosa; experiment: Antimicrobial activity against verona integron-encoded metallo-beta-lactamase producing Pseudomonas aeruginosa 50692520 assessed as reduction in bacterial growth incubated for 48 hrs by microdilution method; type: functional
# [28] = Antimicrobial activity against carbapenemase producing Klebsiella pneumoniae K47-25 assessed as reduction in bacterial growth incubated for 48 hrs by microdilution method; type: functional
# [29] = Antimicrobial activity against New Delhi metallo-beta lactamase-1 Klebsiella pneumoniae K66-45 assessed as reduction in bacterial growth incubated for 48 hrs by microdilution method; type: functional
# [30] = Antimicrobial activity against New Delhi metallo-beta lactamase-1 and oxacillinase -181 producing Klebsiella pneumoniae 50531633 assessed as reduction in bacterial growth incubated for 48 hrs by microdilution method; type: functional
# [31] = Antimicrobial activity against oxacillinase-245 producing Klebsiella pneumoniae 50625602 assessed as reduction in bacterial growth incubated for 48 hrs by microdilution method; type: functional
# [32] = Antimicrobial activity against verona integron-encoded metallo-beta-lactamase -1 producing Klebsiella pneumoniae 50667959 assessed as reduction in bacterial growth incubated for 48 hrs by microdilution method; type: functional
# [33] = tested on: Acinetobacter baumannii; experiment: Antimicrobial activity against oxacillinase-58 producing Acinetobacter baumannii K12-21 assessed as reduction in bacterial growth incubated for 48 hrs by microdilution method; type: functional
# [34] = tested on: Acinetobacter baumannii; experiment: Antimicrobial activity against oxacillinase-23 producing Acinetobacter baumannii K44-35 assessed as reduction in bacterial growth incubated for 48 hrs by microdilution method; type: functional
# [35] = tested on: Acinetobacter baumannii; experiment: Antimicrobial activity against oxacillinase-23 producing Acinetobacter baumannii K47-42 assessed as reduction in bacterial growth incubated for 48 hrs by microdilution method; type: functional
# [36] = tested on: Acinetobacter baumannii; experiment: Antimicrobial activity against oxacillinase-24 producing Acinetobacter baumannii K55-13 assessed as reduction in bacterial growth incubated for 48 hrs by microdilution method; type: functional
# [37] = tested on: Acinetobacter baumannii; experiment: Antimicrobial activity against oxacillinase-23 producing Acinetobacter baumannii K63-58 assessed as reduction in bacterial growth incubated for 48 hrs by microdilution method; type: functional
Structure (SMILES),IC50 [1],EC50 [2],MIC [3],MIC [4],MIC [5],MIC [6],IC50 [7],MIC [8],MIC [9],MIC [10],MIC [11],MIC [12],MIC [13],MIC [14],MIC [15],MIC [16],MIC [17],MIC [18],MIC [19],MIC [20],further results
N=C(N)NCCCCN1C(=O)N(CCCCNC(=N)N)C(=O)C(Cc2ccc3ccccc3c2)(Cc2ccc3ccccc3c2)C1=O.O=C(O)C(F)(F)F.O=C(O)C(F)(F)F,59 µg/mL,133 µg/mL,8 µg/mL,1 µg/mL,0.25 µg/mL,1 µg/mL,30 µg/mL,8 µg/mL,8 µg/mL,8 µg/mL,8 µg/mL,8 µg/mL,16 µg/mL,8 µg/mL,16 µg/mL,16 µg/mL,8 µg/mL,16 µg/mL,8 µg/mL,8 µg/mL,MIC [21]: 8 µg/mL; MIC [22]: 8 µg/mL; MIC [23]: 32 µg/mL; MIC [24]: 32 µg/mL; MIC [25]: 32 µg/mL; MIC [26]: 32 µg/mL; MIC [27]: 32 µg/mL; MIC [28]: 16 µg/mL; MIC [29]: 16 µg/mL; MIC [30]: 16 µg/mL; MIC [31]: 16 µg/mL; MIC [32]: 16 µg/mL; MIC [33]: 32 µg/mL; MIC [34]: 32 µg/mL; MIC [35]: 32 µg/mL; MIC [36]: 32 µg/mL; MIC [37]: 32 µg/mL
CC(C)(C)c1cc(CC2(Cc3cc(C(C)(C)C)cc(C(C)(C)C)c3)C(=O)N(CCCCNC(=N)N)C(=O)N(CCCCNC(=N)N)C2=O)cc(C(C)(C)C)c1.O=C(O)C(F)(F)F.O=C(O)C(F)(F)F,15 µg/mL,< 6 µg/mL,4 µg/mL,4 µg/mL,0.25 µg/mL,1 µg/mL,17 µg/mL,4 µg/mL,2 µg/mL,2 µg/mL,2 µg/mL,2 µg/mL,2 µg/mL,2 µg/mL,2 µg/mL,2 µg/mL,2 µg/mL,16 µg/mL,8 µg/mL,16 µg/mL,MIC [21]: 8 µg/mL; MIC [22]: 8 µg/mL; MIC [23]: 16 µg/mL; MIC [24]: 8 µg/mL; MIC [25]: 16 µg/mL; MIC [26]: 16 µg/mL; MIC [27]: 16 µg/mL; MIC [28]: 16 µg/mL; MIC [29]: 8 µg/mL; MIC [30]: 16 µg/mL; MIC [31]: 16 µg/mL; MIC [32]: 8 µg/mL; MIC [33]: 4 µg/mL; MIC [34]: 4 µg/mL; MIC [35]: 4 µg/mL; MIC [36]: 4 µg/mL; MIC [37]: 4 µg/mL
N=C(N)NCCCCN1C(=O)N(CCCCNC(=N)N)C(=O)C(Cc2ccc(F)c3ccccc23)(Cc2ccc(F)c3ccccc23)C1=O.O=C(O)C(F)(F)F.O=C(O)C(F)(F)F,56 µg/mL,90 µg/mL,4 µg/mL,1 µg/mL,0.25 µg/mL,1 µg/mL,23 µg/mL,2 µg/mL,2 µg/mL,2 µg/mL,2 µg/mL,2 µg/mL,4 µg/mL,4 µg/mL,4 µg/mL,4 µg/mL,4 µg/mL,8 µg/mL,4 µg/mL,4 µg/mL,MIC [21]: 8 µg/mL; MIC [22]: 4 µg/mL; MIC [23]: 16 µg/mL; MIC [24]: 8 µg/mL; MIC [25]: 16 µg/mL; MIC [26]: 16 µg/mL; MIC [27]: 16 µg/mL; MIC [28]: 8 µg/mL; MIC [29]: 4 µg/mL; MIC [30]: 8 µg/mL; MIC [31]: 16 µg/mL; MIC [32]: 4 µg/mL; MIC [33]: 8 µg/mL; MIC [34]: 8 µg/mL; MIC [35]: 8 µg/mL; MIC [36]: 8 µg/mL; MIC [37]: 8 µg/mL
NCCCCN1C(=O)N(CCCCN)C(=O)C(Cc2ccc3ccccc3c2)(Cc2ccc3ccccc3c2)C1=O.O=C(O)C(F)(F)F.O=C(O)C(F)(F)F,7 µg/mL,250 µg/mL,16 µg/mL,16 µg/mL,1 µg/mL,8 µg/mL,2 µg/mL,8 µg/mL,8 µg/mL,8 µg/mL,8 µg/mL,8 µg/mL,16 µg/mL,8 µg/mL,16 µg/mL,16 µg/mL,8 µg/mL,16 µg/mL,16 µg/mL,16 µg/mL,MIC [21]: 16 µg/mL; MIC [22]: 16 µg/mL; MIC [23]: 32 µg/mL; MIC [24]: 32 µg/mL; MIC [25]: > 32 µg/mL; MIC [26]: 32 µg/mL; MIC [27]: 32 µg/mL; MIC [28]: > 32 µg/mL; MIC [29]: > 32 µg/mL; MIC [30]: 32 µg/mL; MIC [31]: > 32 µg/mL; MIC [32]: > 32 µg/mL; MIC [33]: 32 µg/mL; MIC [34]: 32 µg/mL; MIC [35]: 32 µg/mL; MIC [36]: 32 µg/mL; MIC [37]: 16 µg/mL
